# Assays:
# Format in all cases: functional
# Amaranthus retroflexus [1] = assay: Post-emergence herbicidal activity against one-leaf stage of Amaranthus retroflexus under greenhouse condition at 750 g /ha measured after 24 days by spray method; conditions: 576 h, read-out: GI
# [2] = test system: Brassica rapa subsp. oleifera; assay: Post-emergence herbicidal activity against one-leaf stage Brassica rapa subsp. oleifera under greenhouse condition at 750 g /ha measured after 24 days by spray method; conditions: 576 h, read-out: GI
# [3] = test system: Brassica rapa subsp. oleifera; assay: Pre-emergence herbicidal activity against Brassica rapa subsp. oleifera under greenhouse condition at 750 g /ha measured after 24 days by spray method; conditions: 576 h, read-out: GI
# Amaranthus retroflexus [4] = assay: Pre-emergence herbicidal activity against Amaranthus retroflexus under greenhouse condition at 750 g /ha measured after 24 days by spray method; conditions: 576 h, read-out: GI
# Digitaria [5] = assay: Pre-emergence herbicidal activity against Digitaria adscendens under greenhouse condition at 750 g /ha measured after 24 days by spray method; conditions: in Digitaria adscendens, 576 h, read-out: GI
# Echinochloa crus-galli [6] = assay: Post-emergence herbicidal activity against one-leaf stage of Echinochloa crus-galli (barnyard grass) under greenhouse condition at 750 g /ha measured after 24 days by spray method; conditions: 576 h, read-out: GI
# Echinochloa crus-galli [7] = assay: Pre-emergence herbicidal activity against Echinochloa crus-galli (barnyard grass) under greenhouse condition at 750 g /ha measured after 24 days by spray method; conditions: 576 h, read-out: GI
# Spirodela polyrhiza [8] = assay: Bleaching herbicidal activity in Spirodela polyrhiza fronds cultured in compound-containing in medium assessed as chlorophyll inhibition at 1 ug/ml after 7 days; conditions: 168 h
# Spirodela polyrhiza [9] = assay: Bleaching herbicidal activity in Spirodela polyrhiza fronds cultured in compound-containing in medium assessed as chlorophyll inhibition at 10 ug/ml after 7 days; conditions: 168 h
# Digitaria [10] = assay: Post-emergence herbicidal activity against one-leaf stage of Digitaria adscendens under greenhouse condition at 750 g /ha measured after 24 days by spray method; conditions: in Digitaria adscendens, 576 h, read-out: GI
Structure (SMILES),inhibition of growth at 750 g/ha (Amaranthus retroflexus [1]) [%],inhibition of growth at 750 g/ha [2] [%],inhibition of growth at 750 g/ha [3] [%],inhibition of growth at 750 g/ha (Amaranthus retroflexus [4]) [%],inhibition of growth at 750 g/ha (Digitaria [5]) [%],inhibition of growth at 750 g/ha (Echinochloa crus-galli [6]) [%],inhibition of growth at 750 g/ha (Echinochloa crus-galli [7]) [%],inhibition at 1 µg/mL (Spirodela polyrhiza [8]) [%],inhibition at 10 µg/mL (Spirodela polyrhiza [9]) [%],inhibition of growth at 750 g/ha (Digitaria [10]) [%]
COc1ccccc1COc1nnc(C)cc1-c1cccc(C(F)(F)F)c1,25,16,0,0,33,1,0,18,72,10
Cc1cc(-c2cccc(C(F)(F)F)c2)c(Oc2ccc(C(C)(C)C)cc2)nn1,38,44,1,0,4,33,0,0,35,0
Cc1cc(-c2cccc(C(F)(F)F)c2)c(OCc2c(Cl)cccc2Cl)nn1,34,20,2,15,41,4,1,4,26,0
Cc1cc(-c2cccc(C(F)(F)F)c2)c(Oc2ccccc2Br)nn1,0,34,0,0,7,30,0,0,78,21
Cc1cc(-c2cccc(C(F)(F)F)c2)c(Oc2ccccc2F)nn1,73,69,4,23,11,5,6,63,66,16
Cc1cc(-c2cccc(C(F)(F)F)c2)c(OCc2ccc(N(C)C)cc2)nn1,21,7,4,11,6,0,17,64,97,11
Cc1cc(-c2cccc(C(F)(F)F)c2)c(Oc2ccccc2C(F)(F)F)nn1,3,46,10,0,0,12,11,32,37,0
Cc1cc(-c2cccc(C(F)(F)F)c2)c(OCc2cccc(Cl)c2)nn1,31,33,0,18,2,0,36,29,45,0
Cc1cc(C)cc(Oc2nnc(C)cc2-c2cccc(C(F)(F)F)c2)c1,8,56,0,10,11,6,10,42,63,0
Cc1cc(-c2cccc(C(F)(F)F)c2)c(Oc2ccccc2-c2ccccc2)nn1,25,0,0,18,0,0,0,29,33,0
COc1cccc(COc2nnc(C)cc2-c2cccc(C(F)(F)F)c2)c1,12,9,0,0,0,5,20,5,23,0

# Source: ChEMBL document CHEMBL3045111, “Synthesis and herbicidal activities of novel 3-(substituted benzyloxy or phenoxy)-6-methyl-4-(3-trifluoromethylphenyl)pyridazine derivatives” (2012)
